# Read-outs that look alike come from different tables or passages of the source.
# How the values were obtained:
# S. aureus BX-1633 = assay: Protective dose PD50, mice infected with lethal inoculum, oral treatment, S. aureus BX-1633; format: in vivo; settings: Staphylococcus aureus, BX1633, 120 h
# S. pyogenes A20201 = assay: Protective dose PD50, mice infected with lethal inoculum, oral treatment, S. pyogenes A20201; format: in vivo; settings: Streptococcus pyogenes, 120 h
# H. influenza A9729 = assay: Protective dose PD50, mice infected with lethal inoculum, oral treatment, H. influenza A9729; format: in vivo; settings: Mus musculus, 120 h
# Text: The structure activity correlations drawn from the foregoing in vitro studies are born out by the results of in vivo studies in mice. Table 4 is a tabulation of the protective doses for mice infected with a lethal inoculum of a bacteria. Two different bacteria were employed in the studies, one a Gram+ organism and the other a Gram- organism. The protective dose (PD50) is that dose which when administered to a group of infected mice results in 50% survival after five days. Normally untreated infected mice die within three days following injection of the lethal inoculum.
# Protective Dose PD50 for Mice Infected with Lethal Inoculum
# P. mirabilis A9554 = assay: Protective dose PD50, mice infected with lethal inoculum, oral treatment, P. mirabilis A9554; format: in vivo
# S. pyogenes = assay: In vitro activity against Streptococci (MIC), S. pyogenes; format: cell-based; settings: Streptococcus pyogenes, Compound 9 lot 2
# S. pneumoniae = assay: In vitro activity against Streptococci (MIC), S. pneumoniae; format: cell-based; settings: Streptococcus pneumoniae, Compound 9 lot 2
# N. gonorrheae = assay: In vitro activity against Neisseria (MIC), N. gonorrheae; format: cell-based
# N. meningitidis = assay: In vitro activity against Neisseria (MIC), N. meningitidis; format: cell-based
# H. influenzae = assay: In vitro activity against Haemophilis (MIC), H. influenzae; format: cell-based; settings: Haemophilus influenzae, Compound 9 lot 2
# [1] = mouse, in vivo
# in vivo = settings: mouse; for half-life: T1/2
# [2] = test system: Gp Ib: S. aureus 193, BX-1633-2 A9606, A15092, Russell, A9602; settings: Staphylococcus aureus
# [3] = test system: Gp Ia: S. aureus Smith A9537, A9497, Terajima, A9534, A9601; settings: Staphylococcus aureus
# S. aureus Smith = assay: Protective dose, mice infected with lethal inoculum, oral treatment, S. aureus Smith; format: in vivo; settings: Staphylococcus aureus, po, 120 h, oral; separate run of Compound 42 and BMY28100; cephalexin/cefadroxil controls not available; read-out: Protective dose (PD50), S. aureus Smith
# bacteria = assay: Antibacterial activity, general statements; settings: in words
# [4] = test system: Gp Ia, Gp Ib, Gn Ia organisms of Table 2; assay: Test medium comparison, agar dilution MIC, Mueller-Hinton agar versus nutrient agar
smiles,measurement,setting,value
CC1=C(C(=O)O)N2C(=O)[C@@H](NC(=O)[C@H](N)c3ccc(O)cc3)[C@H]2SC1 [Cefadroxil],ED50,S. aureus BX-1633,7.2 mg/kg
same,ED50,S. pyogenes A20201,0.25 mg/kg
same,ED50,H. influenza A9729,25 mg/kg
same,Protective Dose PD50,P. mirabilis A9554,14
same,MIC,"S. pyogenes; S. pyogenes A9604, read-out: MIC",0.8 µg/mL
same,MIC,"S. pyogenes; S. pyogenes A15040, read-out: MIC",0.8 µg/mL
same,MIC,"S. pyogenes; S. pyogenes A20065, read-out: MIC",0.8 µg/mL
same,MIC,"S. pyogenes; S. pyogenes A20201, read-out: MIC",0.4 µg/mL
same,MIC,"S. pyogenes; S. pyogenes Dick, read-out: MIC",0.8 µg/mL
same,MIC,"S. pyogenes; S. pyogenes S-23, Dick, A9604, A20065, A15040, read-out: MIC, Geometric Mean",0.8 µg/mL
same,MIC,"S. pyogenes; S. pyogenes S-23, read-out: MIC",0.8 µg/mL
same,MIC,"S. pneumoniae; S. pneumoniae A9585, read-out: MIC",1.6 µg/mL
same,MIC,"S. pneumoniae; S. pneumoniae A15069, read-out: MIC",1.6 µg/mL
same,MIC,"S. pneumoniae; S. pneumoniae A20759, read-out: MIC",3.1 µg/mL
same,MIC,"S. pneumoniae; S. pneumoniae Type I, read-out: MIC",1.6 µg/mL
same,MIC,"S. pneumoniae; S. pneumoniae Type II, I, III, A9585, A15069, read-out: MIC, Geometric Mean",1.6 µg/mL
same,MIC,"S. pneumoniae; S. pneumoniae Type II, read-out: MIC",1.6 µg/mL
same,MIC,"S. pneumoniae; S. pneumoniae Type III, read-out: MIC",1.6 µg/mL
same,MIC,"N. gonorrheae; N. gonorrheae A20142, Compound 9 lot 2",6.3 µg/mL
same,MIC,"N. gonorrheae; N. gonorrheae A20143, Compound 9 lot 2",6.3 µg/mL
same,MIC,"N. gonorrheae; N. gonorrheae A20154, Compound 9 lot 2",6.3 µg/mL
same,MIC,"N. gonorrheae; N. gonorrheae A20155, Compound 9 lot 2",6.3 µg/mL
same,MIC,N. gonorrheae; read-out: MIC,6.3 µg/mL
same,MIC,"N. gonorrheae; read-out: MIC, Geometric Mean",6.3 µg/mL
same,MIC,"N. meningitidis; N. meningitidis A21487, Compound 9 lot 2",6.3 µg/mL
same,MIC,"N. meningitidis; N. meningitidis A21496, Compound 9 lot 2",6.3 µg/mL
same,MIC,"N. meningitidis; N. meningitidis A21497, Compound 9 lot 2",6.3 µg/mL
same,MIC,"N. meningitidis; Neisseria meningitidis, read-out: MIC",6.3 µg/mL
same,MIC,"N. meningitidis; Neisseria meningitidis, read-out: MIC, Geometric Mean",6.3 µg/mL
same,MIC,"H. influenzae; H. influenzae A9729, read-out: MIC",6.3 µg/mL
same,MIC,"H. influenzae; H. influenzae A9833, read-out: MIC",6.3 µg/mL
same,MIC,"H. influenzae; H. influenzae A20177, read-out: MIC",6.3 µg/mL
same,MIC,"H. influenzae; H. influenzae A20193, read-out: MIC",6.3 µg/mL
same,MIC,"H. influenzae; H. influenzae A21523, read-out: MIC",6.3 µg/mL
same,MIC,"H. influenzae; H. influenzae A22157, read-out: MIC",6.3 µg/mL
same,MIC,"H. influenzae; H. influenzae A22481, read-out: MIC",6.3 µg/mL
same,MIC,"H. influenzae; H. influenzae A22482, read-out: MIC",6.3 µg/mL
same,MIC,"H. influenzae; H. influenzae A22483, read-out: MIC",6.3 µg/mL
same,MIC,"H. influenzae; H. influenzae A22491, read-out: MIC",6.3 µg/mL
same,MIC,"H. influenzae; H. influenzae, seven strains above, read-out: MIC, Geometric Mean",6.3 µg/mL
same,T1/2,"[1]; im, 20 mg/kg",0.37 h
same,T1/2,"[1]; po, 20 mg/kg",1.6 h
same,T1/2,"[1]; po, 100 mg/kg",1.5 h
same,AUC,"in vivo; im, 20 mg/kg, AUC*",14000 ng·h/mL
same,Cmax,"in vivo; im, 20 mg/kg",21000 ng/mL
same,half-life,"in vivo; im, 20 mg/kg",0.33 h
same,AUC,"in vivo; po, 20 mg/kg, AUC*",18000 ng·h/mL
same,Cmax,"in vivo; po, 20 mg/kg",12000 ng/mL
same,half-life,"in vivo; po, 20 mg/kg",1.2 h
same,AUC,"in vivo; po, 100 mg/kg, AUC",103000 ng·h/mL
same,Cmax,"in vivo; po, 100 mg/kg",56000 ng/mL
same,half-life,"in vivo; po, 100 mg/kg",2.3 h
same,MIC,"[2]; read-out: Minimum Inhibitory Concentration Gp Ib, Mueller-Hinton agar, run 1, average of five organisms",3.6 µg/mL
same,MIC,"[2]; read-out: Minimum Inhibitory Concentration Gp Ib, Mueller-Hinton agar, run 2, average of five organisms",4.1 µg/mL
same,MIC,"[3]; read-out: Minimum Inhibitory Concentration Gp Ia, Mueller-Hinton agar, run 1, average of five organisms",1.2 µg/mL
same,MIC,"[3]; read-out: Minimum Inhibitory Concentration Gp Ia, Mueller-Hinton agar, run 2, average of five organisms",1.1 µg/mL
"C/C=C\C1=C(C(=O)O)N2C(=O)[C@@H](NC(=O)[C@H](N)c3ccc(O)c(OC)c3)[C@H]2SC1 [Compound 42, 7β-[D(-)-2-Amino-2-(4-hydroxy-3-methoxyphenyl)acetamido]-3-[(Z)-1-propen-1-yl]-3-cephem-4-carboxylic Acid]",ED50,S. aureus Smith,0.09 mg/kg
same,antibacterial activity,bacteria,high in vitro and in vivo activity
same,difference in MIC between the two media,[4],less than three fold
same,MIC,"[2]; read-out: Minimum Inhibitory Concentration Gp Ib, Mueller-Hinton agar, not part of run 1, tested separately, average of five organisms",1.2 µg/mL
same,MIC,"[2]; read-out: Minimum inhibitory Concentration Gp Ib, Test Medium Comparison, A: Mueller-Hinton agar, average values",1.2 µg/mL
same,MIC,"[2]; read-out: Minimum inhibitory Concentration Gp Ib, Test Medium Comparison, B: Nutrient agar, average values",0.4 µg/mL
same,MIC,"[3]; read-out: Minimum Inhibitory Concentration Gp Ia, Mueller-Hinton agar, not part of run 1, tested separately, average of five organisms",0.35 µg/mL
same,MIC,"[3]; read-out: Minimum inhibitory Concentration Gp Ia, Test Medium Comparison, A: Mueller-Hinton agar, average values",0.35 µg/mL
same,MIC,"[3]; read-out: Minimum inhibitory Concentration Gp Ia, Test Medium Comparison, B: Nutrient agar, average values",0.23 µg/mL

# Source: patent US4520022A, “Substituted vinyl cephalosporins” (priority 1983, dated 1985)
